Measurements taken from patent US11596639B2, “Substituted indole Mcl-1 inhibitors” (Vanderbilt University, priority 2016, dated 2023).
Like-named read-outs stand apart in the source and are kept apart here.

Assays:
Mcl-1 = Mcl-1 (Homo sapiens (Human), UniProt Q07820); experiment: TR-FRET binding assay, FITC-Bak peptide and MBP-tagged Mcl-1; settings: read-out: Ki for Inhibition of Mcl-1 by TR-FRET assay
Method: Compounds are diluted in DMSO in a 16-point, semilog serial dilution scheme. […] The plate was mixed and incubated for 3 hours at room temperature. […] TR-FRET signal is plotted and IC50 and Ki values are calculated in the same manner as the fluorescence polarization anisotropy based competition assays.

[1] = test system: H929 human cancer cell lines; experiment: Cellular viability / proliferation (Cell TiterGlo, 72 h); assay type: cell-based
Outline: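 Compounds were added as 2-fold serial dilutions from 50 μM (final DMSO <1%) to H929 cells seeded 1,000 per well in 10% FBS medium one day earlier.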

[2] = Homo sapiens, NCI-H929, 72 h, read-out: GI50 on cellular proliferation of H929 human cancer cell lines, H929 cells, 72 h, Cell TiterGlo, 10% FBS

Chain of Mcl-1 (Q07820 172-327): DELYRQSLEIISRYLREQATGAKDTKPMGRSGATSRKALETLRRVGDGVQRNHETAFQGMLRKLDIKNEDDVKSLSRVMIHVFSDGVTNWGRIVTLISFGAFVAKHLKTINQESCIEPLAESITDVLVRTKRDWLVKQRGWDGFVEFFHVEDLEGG

Row | SMILES | Ki (Mcl-1) [nM] | GI50 ([1]; read-out: GI50 on cellular proliferation of H929 human cancer cell lines, H929 cells, 72 h, Cell TiterGlo, 10% FBS) [nM] | GI50 [1, 2] [nM]
1 | Cc1ccc(Cn2cc(C(=O)O)c3cccc(N4C[C@@H](C)n5c(c(CCCOc6cc(C)c(Cl)c(C)c6)c6ccc(Cl)c(-c7c(C)nn(C)c7C)c65)C4=O)c32)nc1 (single isomer, unassigned) [Example 507] | 0.72 | 1400 | –
2 | Cc1cc(OCCCc2c3n(c4c(-c5c(C)nn(C)c5C)c(Cl)ccc24)[C@H](C)CN(c2cc(OCCN(C)C)cc4cc(C(=O)O)n(Cc5ccccn5)c24)C3=O)cc(C)c1Cl [Example 590, (R)-7-(7-chloro-10-(3-(4-chloro-3,5-dimethylphenoxy)propyl)-4-methyl-1-oxo-6-(1,3,5-trimethyl-1H-pyrazol-4-yl)-3,4-dihydropyrazino[1,2-a]indol-2(1H)-yl)-5-(2-(dimethylamino)ethoxy)-1-(pyridin-2-ylmethyl)-1H-indole-2-carboxylic acid] | < 0.2 | – | 670
3 | Cc1cc(N2C[C@@H](C)n3c(c(CCCOc4cc(C)c(Cl)c(C)c4)c4ccc(Cl)c(-c5c(C)nn(C)c5C)c43)C2=O)c2c(c1)cc(C(=O)O)n2Cc1cccc(N2CCN(C)CC2)n1 [Example 516, (R)-7-(7-Chloro-10-(3-(4-chloro-3,5-dimethylphenoxy)propyl)-4-methyl-1-oxo-6-(1,3,5-trimethyl-1H-pyrazol-4-yl)-3,4-dihydropyrazino[1,2-a]indol-2(1H)-yl)-5-methyl-1-((6-(4-methylpiperazin-1-yl)pyridin-2-yl)methyl)-1H-indole-2-carboxylic acid] | < 0.2 | – | 330
4 | COCCn1c(C(=O)O)cc2cc(OC)cc(N3C[C@@H](C)n4c(c(CCCOc5cc(C)c(Cl)c(C)c5)c5ccc(Cl)c(-c6c(C)nn(C)c6C)c54)C3=O)c21 [Example 665, (R)-7-(7-chloro-10-(3-(4-chloro-3,5-dimethylphenoxy)propyl)-4-methyl-1-oxo-6-(1,3,5-trimethyl-1H-pyrazol-4-yl)-3,4-dihydropyrazino[1,2-a]indol-2(1H)-yl)-5-methoxy-1-(2-methoxyethyl)-1H-indole-2-carboxylic acid] | < 0.2 | – | 280
5 | Cc1cc(OCCCc2c3n(c4c(-c5c(C)cc(O)cc5C)c(Cl)ccc24)[C@H](C)CN(c2cn(C)c4ccc(C(=O)O)cc24)C3=O)cc(C)c1Cl [Example 496, (R)-3-(7-chloro-10-(3-(4-chloro-3,5-dimethylphenoxy)propyl)-6-(4-hydroxy-2,6-dimethylphenyl)-4-methyl-1-oxo-3,4-dihydropyrazino[1,2-a]indol-2(1H)-yl)-1-methyl-1H-indole-5-carboxylic acid] | 0.64 | – | 1200
6 | COCCN(C)c1cc(N2C[C@@H](C)n3c(c(CCCOc4cc(C)c(Cl)c(C)c4)c4ccc(Cl)c(-c5c(C)nn(C)c5C)c43)C2=O)c2c(c1)cc(C(=O)O)n2C [Example 682, (R)-7-(7-chloro-10-(3-(4-chloro-3,5-dimethylphenoxy)propyl)-4-methyl-1-oxo-6-(1,3,5-trimethyl-1H-pyrazol-4-yl)-3,4-dihydropyrazino[1,2-a]indol-2(1H)-yl)-5-((2-methoxyethyl)(methyl)amino)-1-methyl-1H-indole-2-carboxylic acid] | < 0.2 | – | 340
7 | Cc1cc(OCCCc2c3n(c4c(-c5c(C)nn(C)c5C)c(Cl)ccc24)[C@H](C)CN(c2cc(NC(=O)CN(C)C)cc4c(C(=O)O)cn(C)c24)C3=O)cc(C)c1Cl [Example 542, (R)-7-(7-Chloro-10-(3-(4-chloro-3,5-dimethylphenoxy)propyl)-4-methyl-1-oxo-6-(1,3,5-trimethyl-1H-pyrazol-4-yl)-3,4-dihydropyrazino[1,2-a]indol-2(1H)-yl)-5-(2-(dimethylamino)acetamido)-1-methyl-1H-indole-3-carboxylic acid] | 0.48 | – | 3300
8 | Cc1cc(OCCCc2c3n(c4c(-c5c(C)nc(CN6CCN(C)CC6)nc5C)c(Cl)ccc24)[C@H](C)CN(c2cn(C)c4ccc(-c5ncn(C)n5)cc24)C3=O)cc(C)c1Cl [Example 502, (R)-7-chloro-10-(3-(4-chloro-3,5-dimethylphenoxy)propyl)-6-(4,6-dimethyl-2-((4-methylpiperazin-1-yl)methyl)pyrimidin-5-yl)-4-methyl-2-(1-methyl-5-(1-methyl-1H-1,2,4-triazol-3-yl)-1H-indol-3-yl)-3,4-dihydropyrazino[1,2-a]indol-1(2H)-one] | 2.9 | – | < 200
9 | C=Cc1ccnc(Cn2c(C(=O)O)cc3cc(C)cc(N4C[C@@H](C)n5c(c(CCCOc6cc(C)c(Cl)c(C)c6)c6ccc(Cl)c(-c7c(C)nn(C)c7C)c65)C4=O)c32)c1 [Example 514, (R)-7-(7-chloro-10-(3-(4-chloro-3,5-dimethylphenoxy)propyl)-4-methyl-1-oxo-6-(1,3,5-trimethyl-1H-pyrazol-4-yl)-3,4-dihydropyrazino[1,2-a]indol-2(1H)-yl)-5-methyl-1-((4-vinylpyridin-2-yl)methyl)-1H-indole-2-carboxylic acid] | < 0.2 | – | < 200
10 | COCCOc1ccc(N2C[C@@H](C)n3c(c(CCCOc4cc(C)c(Cl)c(C)c4)c4ccc(Cl)c(-c5c(C)nn(C)c5C)c43)C2=O)c2c1cc(C(=O)O)n2Cc1cc(C)ccn1 [Example 632, (R)-7-(7-chloro-10-(3-(4-chloro-3,5-dimethylphenoxy)propyl)-4-methyl-1-oxo-6-(1,3,5-trimethyl-1H-pyrazol-4-yl)-3,4-dihydropyrazino[1,2-a]indol-2(1H)-yl)-4-(2-methoxyethoxy)-1-((4-methylpyridin-2-yl)methyl)-1H-indole-2-carboxylic acid] | < 0.2 | – | 220
11 | COCCn1c(C(=O)O)cc2cc(C)cc(N3C[C@@H](C)n4c(c(CCCOc5cc(C)c(Cl)c(C)c5)c5ccc(Cl)c(-c6c(C)ncnc6C)c54)C3=O)c21 [Example 594, (R)-7-(7-chloro-10-(3-(4-chloro-3,5-dimethylphenoxy)propyl)-6-(4,6-dimethylpyrimidin-5-yl)-4-methyl-1-oxo-3,4-dihydropyrazino[1,2-a]indol-2(1H)-yl)-1-(2-methoxyethyl)-5-methyl-1H-indole-2-carboxylic acid] | < 0.2 | – | 230
12 | COc1cc(N2C[C@@H](C)n3c(c(CCCOc4cc(C)c(Cl)c(C)c4)c4ccc(Cl)c(-c5c(C)ncnc5C)c43)C2=O)c2c(c1)cc(C(=O)O)n2Cc1cccc(C)n1 [Example 572, (R)-7-(7-chloro-10-(3-(4-chloro-3,5-dimethylphenoxy)propyl)-6-(4,6-dimethylpyrimidin-5-yl)-4-methyl-1-oxo-3,4-dihydropyrazino[1,2-a]indol-2(1H)-yl)-5-methoxy-1-((6-methylpyridin-2-yl)methyl)-1H-indole-2-carboxylic acid] | < 0.2 | – | 300
13 | Cc1cc(OCCCc2c3n(c4c(-c5c(C)nn(C)c5C)c(Cl)ccc24)[C@H](C)CN(c2cc(OC(F)(F)F)cc4cc(C(=O)O)n(C)c24)C3=O)cc(C)c1Cl [Example 479, (R)-7-(7-chloro-10-(3-(4-chloro-3,5-dimethylphenoxy)propyl)-4-methyl-1-oxo-6-(1,3,5-trimethyl-1H-pyrazol-4-yl)-3,4-dihydropyrazino[1,2-a]indol-2(1H)-yl)-1-methyl-5-(trifluoromethoxy)-1H-indole-2-carboxylic acid] | 0.95 | – | 1500
14 | Cc1cnc(-n2cnc(-c3ccc4c(c3)c(N3C[C@@H](C)n5c(c(CCCOc6cc(C)c(Cl)c(C)c6)c6ccc(Cl)c(-c7c(C)nn(C)c7C)c65)C3=O)cn4C)n2)nc1 [Example 700, (R)-7-Chloro-10-(3-(4-chloro-3,5-dimethylphenoxy)propyl)-4-methyl-2-(1-methyl-5-(1-(5-methylpyrimidin-2-yl)-1H-1,2,4-triazol-3-yl)-1H-indol-3-yl)-6-(1,3,5-trimethyl-1H-pyrazol-4-yl)-3,4-dihydropyrazino[1,2-a]indol-1(2H)-one] | 0.73 | – | 380
15 | Cc1cc(N2C[C@@H](C)n3c(c(CCCOc4cc(C)c(Cl)c(C)c4)c4ccc(Cl)c(-c5c(C)ncnc5C)c43)C2=O)c2c(c1)cc(C(=O)O)n2Cc1cccc(C)n1 [Example 576, (R)-7-(7-chloro-10-(3-(4-chloro-3,5-dimethylphenoxy)propyl)-6-(4,6-dimethylpyrimidin-5-yl)-4-methyl-1-oxo-3,4-dihydropyrazino[1,2-a]indol-2(1H)-yl)-5-methyl-1-((6-methylpyridin-2-yl)methyl)-1H-indole-2-carboxylic acid] | < 0.2 | – | 350
16 | COCCn1c(C(=O)O)cc2c(OC)ccc(N3C[C@@H](C)n4c(c(CCCOc5cc(C)c(Cl)c(C)c5)c5ccc(Cl)c(-c6c(C)n[nH]c6C)c54)C3=O)c21 [Example 728, (R)-7-(7-chloro-10-(3-(4-chloro-3,5-dimethylphenoxy)propyl)-6-(3,5-dimethyl-1H-pyrazol-4-yl)-4-methyl-1-oxo-3,4-dihydropyrazino[1,2-a]indol-2(1H)-yl)-4-methoxy-1-(2-methoxyethyl)-1H-indole-2-carboxylic acid] | < 0.2 | – | 710
17 | Cc1cc(OCCCc2c3n(c4c(-c5c(C)cc(OCCN(C)C)cc5C)c(Cl)ccc24)[C@H](C)CN(c2cn(C)c4ccc(C(=O)O)cc24)C3=O)cc(C)c1Cl [Example 509, (R)-3-(7-chloro-10-(3-(4-chloro-3,5-dimethylphenoxy)propyl)-6-(4-(2-(dimethylamino)ethoxy)-2,6-dimethylphenyl)-4-methyl-1-oxo-3,4-dihydropyrazino[1,2-a]indol-2(1H)-yl)-1-methyl-1H-indole-5-carboxylic acid] | 1.6 | – | 390
